Experimental data published in patent US20120172228A1, “ALCOHOL ALKOXYLATES AS ADJUVANTS FOR AGROCHEMICAL FORMULATIONS” (SYNGENTA CROP PROTECTION, LLC, priority 2009, published 2012).

What was measured:
[1] = test system: xanthium strumarium (XANST), setaria viridis (SETVI), abutilon theophrasti (ABUTH), chenopodium album (CHEAL); assay: Adjuvant with herbicide fomesafen, track sprayer, mean across four weed species; assay type: in vivo; settings: fomesafen 60 or 120 g/ha; butylene oxide adjuvants 0.2%, TEHP and Turbocharge 0.5%; 7 and 13 days
Description: In this example Sample 13 from Table 1 was compared to the oil adjuvant blend Turbocharge™. The herbicide fomesafen was applied to the weed species xanthium strumarium (XANST), setaria viridis (SETVI), abutilon theophrasti (ABUTH), and chenopodium album (CHEAL) at rates of 60 or 120 grams per hectare, using a laboratory track sprayer. […] Four effects were evaluated: pesticide rate (2 levels), adjuvant type (two levels), weed species (four levels) and days after application (three levels). A standard simple linear model was constructed to judge the significance of these effects. […] A model was fitted using multiple linear regression using the statistics package JMP (SAS group). The effect of each adjuvant was pulled out from the model and the least significant differences evaluated using a Student's t method. In further examples, where a greater number than two adjuvants were compared, Tukey's HSD method was used. […]
In this example the rate response of the butylene oxide adjuvant number 13 of Table 1 was measured to display the excellent performance of this adjuvant at very low rates. compared to the adjuvant Brij™96V. […]
In this example the rate response of the butylene oxide sample 27 of Table 1 was measured, displaying the excellent performance of this adjuvant compared to the commercial adjuvant Turbocharge™, used at a rate of 0.5% by volume. […]

setaria viridis (SETVI) = assay: Adjuvant with herbicide nicosulfuron on SETVI; assay type: in vivo; settings: nicosulfuron 30 or 60 g/ha; adjuvants 0.2% of spray water; 14 and 21 days after application
Description: In this example Sample 13 from Table 1 was compared to the oil adjuvant blend Turbocharge™. The herbicide fomesafen was applied to the weed species xanthium strumarium (XANST), setaria viridis (SETVI), abutilon theophrasti (ABUTH), and chenopodium album (CHEAL) at rates of 60 or 120 grams per hectare, using a laboratory track sprayer. Each experiment was replicated four times and the percentage damage to the weeds was assessed visually at time periods of 7, 14 and 21 days after application. Each adjuvant was applied at a rate of 0.5% of the volume of the spray water. Four effects were evaluated: pesticide rate (2 levels), adjuvant type (two levels), weed species (four levels) and days after application (three levels). […] The effect of each adjuvant was pulled out from the model and the least significant differences evaluated using a Student's t method. […]
In this example the butylene oxide adjuvant Sample 13 of Table 1 was compared to the commercial oil adjuvant blend Atplus™411F. […] Each experiment was replicated four times and the percentage damage to the weeds was assessed visually at time periods of 14 and 21 days after application. […]
In this example the responses of the butylene oxide adjuvants 13, 17, 19, 21, 22 and 23 of Table 1 were measured at an application rate of 0.2% of the volume of the spray solution used. […]

## CCCCC(CC)COP(=O)(OCC(CC)CCCC)OCC(CC)CCCC (centres unmarked) [TEHP, tris 2-ethylhexyl phosphate]
[1]
  Mean kill across weeds (%): 72.7%
Setaria viridis (SETVI)
  mean efficacy (percentage damage to the weeds), SETVI: 77.08; A %
